According to the supplement of paper PMC10307832:

Experiments:
Experiment in all cases: relative viability (nuclei count vs DMSO), 5 days (fraction); higher = more cells survive
[1] = compound: COc1cc2nc(N3CCCN(C)CC3)nc(NC3CCN(Cc4ccccc4)CC3)c2cc1OC + COc1cc2c(Oc3ccc(NC(=O)C4(C(=O)Nc5ccc(F)cc5)CC4)cc3F)ccnc2cc1OCCCN1CCOCC1 [Foretinib] (partner 0.25 µM)
Method in brief: (§1)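 Nuclei were stained with Hoechst during a one-step fixation (final 0.05% Triton X-100, 1% formaldehyde, 1 ug/ml Hoechst) carried out 5 days after dosing, then counted on 4× images. The cells, lung cancer lines in 1536-well plates, had been dosed by pin tool the day after seeding with one drug alone or a fixed anchor-drug dose plus five library-drug doses (not always all listed) in √10 steps. Relative viability is the nuclei count in treated wells divided by that in vehicle wells, and each value is the median of duplicate plates.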

[2] = compound: COc1cc2nc(N3CCCN(C)CC3)nc(NC3CCN(Cc4ccccc4)CC3)c2cc1OC + O=C(CCCCCCC(=O)Nc1ccccc1)NO [Vorinostat] (partner 1 µM)
Method in brief: as §1

AZD6482 + Navitoclax = compound: Cc1cc([C@@H](C)Nc2ccccc2C(=O)O)c2nc(N3CCOCC3)cc(=O)n2c1 [AZD6482] + CC1(C)CCC(c2ccc(Cl)cc2)=C(CN2CCN(c3ccc(C(=O)NS(=O)(=O)c4ccc(N[C@H](CCN5CCOCC5)CSc5ccccc5)c(S(=O)(=O)C(F)(F)F)c4)cc3)CC2)C1 [Navitoclax] (partner 0.5 µM)
Method in brief: as §1

AZD6482 + Trametinib = compound: Cc1cc([C@@H](C)Nc2ccccc2C(=O)O)c2nc(N3CCOCC3)cc(=O)n2c1 [AZD6482] + CC(=O)Nc1cccc(-n2c(=O)n(C3CC3)c(=O)c3c(Nc4ccc(I)cc4F)n(C)c(=O)c(C)c32)c1 [Trametinib] (partner 0.02 µM)
Method in brief: as §1

Cell Line	relative viability ([1]; first compound 0.2 µM)	relative viability ([1]; first compound 0.6325 µM)	relative viability ([1]; first compound 2 µM)	relative viability ([1]; first compound 6.325 µM)	relative viability ([2]; first compound 0.2 µM)	relative viability ([2]; first compound 0.6325 µM)	relative viability ([2]; first compound 2 µM)	relative viability ([2]; first compound 6.325 µM)	relative viability (AZD6482 + Navitoclax; first compound 0.08 µM)	relative viability (AZD6482 + Navitoclax; first compound 0.253 µM)	relative viability (AZD6482 + Navitoclax; first compound 0.8 µM)	relative viability (AZD6482 + Navitoclax; first compound 2.53 µM)	relative viability (AZD6482 + Navitoclax; first compound 8 µM)	relative viability (AZD6482 + Trametinib; first compound 0.08 µM)	relative viability (AZD6482 + Trametinib; first compound 0.253 µM)	relative viability (AZD6482 + Trametinib; first compound 0.8 µM)	relative viability (AZD6482 + Trametinib; first compound 2.53 µM)	relative viability (AZD6482 + Trametinib; first compound 8 µM)
NCI-H3122	0.915	1.02	0.955	0.968	1.04	1.04	0.921	0.937	0.96	1.01	1.07	0.894	0.97	0.211	0.23	0.184	0.181	0.161
PC-3 [JPC-3]	1.03	1.03	1.14	0.992	0.625	0.926	0.781	0.707	0.727	0.665	0.851	0.756	0.679	0.556	0.694	0.65	0.564	0.55
PC-14	1.01	0.959	0.939	0.885	0.674	0.674	0.625	0.0432	0.926	1	1.04	0.879	0.96	0.704	0.747	0.794	0.455	0.622
RERF-LC-KJ	0.905	0.927	0.904	0.857	0.61	0.704	0.703	0.589	0.584	0.854	0.802	0.52	0.874	0.767	0.764	0.74	0.682	0.584
SK-LU-1	0.839	0.79	0.783	0.653	0.832	0.747	0.844	0.641	–	0.74	1.04	0.834	0.93	–	0.418	0.495	0.399	0.453
SK-MES-1	0.842	0.926	0.97	0.865	1.02	1.04	1.22	0.472	1.08	1.17	0.923	0.493	0.572	0.394	0.454	0.414	0.294	0.291
SW 1573	0.844	0.974	0.941	0.862	0.704	0.574	0.684	0.199	0.887	0.86	0.941	0.56	0.653	0.466	0.508	0.526	0.336	0.307
